Data reported in BindingDB's records for doi:10.1021/jm9705723 (Wayne State University School of Medicine, 1998).

Columns and labels:
[1] = Inhibitory concentration against human immunodeficiency virus type 1 (HIV-1 strain IIIB RT) reverse transcriptase was determined by triplicate assay at high (~1 pfu/cell) multiplicity of […] (moi)
[2] = Inhibitory concentration against human immunodeficiency virus type 1 (HIV-1 strain IIIB RT) reverse transcriptase was determined by triplicate assay at low (~0.1 pfu/cell) multiplicity of […] (moi)

Row | Compound | IC50 [1] [µM] | IC50 [2] [µM]
1 | Nc1nc2c(ncn2/C=C2\CC2CO)c(=O)[nH]1 (stereo unspecified) [2-Amino-9-[2-hydroxymethyl-cycloprop-(E)-ylidenemethyl]-1,9-dihydro-purin-6-one] | > 30 | 1.9
2 | Nc1ncnc2c1ncn2/C=C1/CC1CO (stereo unspecified) [[2-(6-Amino-purin-9-ylmethylene)-cyclopropyl]-methanol] | 20 | 0.8
3 | Nc1nc(Cl)c2ncn(/C=C3\CC3CO)c2n1 (stereo unspecified) [{2-[1-(2-Amino-6-chloro-purin-9-yl)-meth-(E)-ylidene]-cyclopropyl}-methanol] | – | > 100
4 | Cc1cn([C@H]2C[C@H](N=[N+]=[N-])[C@@H](CO)O2)c(=O)[nH]c1=O [1-((2R,4S,5S)-4-Azido-5-hydroxymethyl-tetrahydro-furan-2-yl)-5-methyl-1H-pyrimidine-2,4-dione] | 0.017 | 0.003
5 | Nc1ncnc2c1ncn2/C=C1\CC1CO (stereo unspecified) [{2-[1-(6-Amino-purin-9-yl)-meth-(E)-ylidene]-cyclopropyl}-methanol] | > 100 | 14
6 | Nc1nc2c(ncn2/C=C2/CC2CO)c(=O)[nH]1 (stereo unspecified) [2-Amino-9-[2-hydroxymethyl-cycloprop-(Z)-ylidenemethyl]-1,9-dihydro-purin-6-one] | > 30 | 1.1
